Results taken from patent publication US12319652B2, “Salts and solid forms of (R)-1-(5-methoxy-1H-indol-1-yl)-N,N-dimethylpropan-2-amine” (priority 2021, dated 2025).

How the values were obtained:
[1] = Equilibrium humidity evaluation of crystalline compound 1 HCl Form A (95% RH/20° C.); format: physicochemical
Method: The stability of crystalline compound 1 HCl Form A was evaluated. Absorbent compound 1·Cl (Form A), (100 mg) was maintained, open-capped at 95% RH/20° C. and monitored at t=0, t=5 d and t=10 d, time points.
While absorbent Compound 1 HCl Form A), (100 mg) was placed open-capped inside double, cable-tied, electrostatic polythene bags (to mimic a typical packaging configuration) and placed inside the same humidity chamber at 95% RH at 20° C. and monitored at t=0, t=5 d and t=10 d time points. Stability of compound 1·HCl (Form A) at 40° C./75% RH was examined as part of the salt screen, and was stable over 10 d.

[2] = Thermocycling of compound 1 Fumarate; details: computed by software from the powder pattern
Method: Thermocycling in different solvents can promote the formation of alternative polymorphic forms. compound 1·Fumarate was heated and cooled between 20° C. and 75% of the relevant solvent b.p. at 0.5° C./minute, for 5 consecutive cycles; a 10-minute dwell was incorporated at each inflection (refer to Table 63). Thermocycling is ripening technique that encourages particle size enlargement and promotes the evolution of the API into a stable phase. […] The products were analysed both wet and dry to determine if form changes had occurred, all products were consistent with monofumarate Form A (refer to FIGS. 16-19 and FIGS. 88-102).
Compound 1 Fumarate (75 mg, 1 wt) was weighed out in to 4 separate vials and the corresponding solvents (750 ul, 10 vol) from Table were charged.
The suspensions underwent constant amplitude thermocycling at ±0.5° C./min up to 75% of the relevant solvent b.p. and −0.5° C./min down to 20° C. The thermocycle was repeated 5 times (FIGS. 16-19 and 88-102).

[3] = Heat-up/cool down (HUCD) crystallization of compound 1 Fumarate in different solvents
Source text: Crystallisation from different solvents can be a useful method to investigate alternative polymorphic forms. This crystallisation screen of compound 1·Fumarate could also be used to identify potential conditions for future scale-up crystallisations to control the form outcome. Amorphous compound 1 fumarate (batch 1) was crystallised from several solvents (refer to Table 64). Only entries N1 AND N2 remained in solution when cooled down. The XRPD diffractograms of the rest, which delivered solids, matched monofumarate Form A when oven dried (FIG. 103).
Separate portions of compound 1 Fumarate (75 mg, 1.0 wt.) were charged to separate vessels. The appropriate solvents (750 μl) were charged to the relevant vessels and subsequent charges of the appropriate co-solvent were made to accomplish dissolution. The solutions were cooled to 18 to 23° C. and allowed to stand undisturbed, until crystallization was judged complete. After this time the products were isolated by centrifugation, washed with recycled maturation solvent, dried under reduced pressure at 40° C. and analyzed by XRPD for evidence of alternative crystalline forms (FIG. 103).

[4] = t = 10 d, open-capped vial inside double bags at 95% RH/20 (Table 111)
[5] = t = 10 d, open-capped vial inside double bags at 95% RH/20 (Table 112)
[6] = thermocycling in MEK/Heptane (1 to 1)
[7] = thermocycling in Toluene 100.0%
[8] = Heptane (5 vol) + 2-Methyl THF 380 μl
[9] = Heptane (5 vol) + 2-Propanol 120 μl
[10] = Heptane (5 vol) + Acetone 200 μl
[11] = Heptane (5 vol) + Butanol 100 μl
[12] = Heptane (5 vol) + Dichloromethane 160 μl
[13] = Heptane (5 vol) + Diethyl ether 800 μl
[14] = Heptane (5 vol) + Dioxane 240 μl
[15] = Heptane (5 vol) + Ehtyl acetate 420 μl
[16] = Heptane (5 vol) + Ethanol 180 μl
[17] = Heptane (5 vol) + Isopropyl acetate 660 μl
[18] = Heptane (5 vol) + Methylethyl ketone 100 μl
[19] = Heptane (5 vol) + Tetrahydrofuran 300 μl
[20] = no precipitant solvent (—), Toluene 800 μl

## COc1ccc2c(ccn2C[C@@H](C)N(C)C)c1.Cl [Compound 1 HCl]
[1]; t = 0, Table 111
  HPLC purity data, peak RT 11.41, RRT 0.94: 0.07
  HPLC purity data, peak RT 12.41, RRT 1.00 (main peak): 99.65
  HPLC purity data, peak RT 14.32, RRT 1.18: 0.03
  HPLC purity data, peak RT 15.05, RRT 1.24: 0.05
  HPLC purity data, peak RT 15.41, RRT 1.27: 0.07
  HPLC purity data, peak RT 15.78, RRT 1.30: 0.04
  HPLC purity data, peak RT 16,50, RRT 1.36: 0.08
[1]; t = 0, Table 112
  HPLC purity data, peak RT 11.41, RRT 0.94: 0.07
  HPLC purity data, peak RT 12.01, RRT 0.99: 0.02
  HPLC purity data, peak RT 12.14, RRT 1.00 (main peak): 99.65
  HPLC purity data, peak RT 14.32, RRT 1.18: 0.03
  HPLC purity data, peak RT 15.05, RRT 1.24: 0.05
  HPLC purity data, peak RT 15.41, RRT 1.27: 0.07
  HPLC purity data, peak RT 15.78, RRT 1.30: 0.04
  HPLC purity data, peak RT 16.50, RRT 1.36: 0.08
[1]; [4]
  HPLC purity data, peak RT 11.29, RRT 0.93: 0.06
  HPLC purity data, peak RT 11.41, RRT 0.94: 0.02
  HPLC purity data, peak RT 12.41, RRT 1.00 (main peak): 99.79
  HPLC purity data, peak RT 14.32, RRT 1.18: 0.03
  HPLC purity data, peak RT 15.05, RRT 1.24: 0.04
  HPLC purity data, peak RT 15.41, RRT 1.27: 0.02
[1]; [5]
  HPLC purity data, peak RT 11.41, RRT 0.94: 0.06
  HPLC purity data, peak RT 12.01, RRT 0.99: 0.02
  HPLC purity data, peak RT 12.14, RRT 1.00 (main peak): 99.78
  HPLC purity data, peak RT 14.32, RRT 1.18: 0.03
  HPLC purity data, peak RT 14.68, RRT 1.21: 0.03
  HPLC purity data, peak RT 15.05, RRT 1.24: 0.05
  HPLC purity data, peak RT 15.41, RRT 1.27: 0.01
  HPLC purity data, peak RT 15.78, RRT 1.30: 0.02

## COc1ccc2c(ccn2C[C@@H](C)[NH+](C)C)c1.O=C(O)/C=C/C(=O)O [Compound 1 fumarate, (R)-1-(5-methoxy-1H-indol-1-yl)-N,N-dimethylpropan-2-amine fumarate]
[2]; [6]
  XRPD crystallinity (dry, %): 83.2%
  XRPD crystallinity (wet, %): 83.4%
[2]; [7]
  XRPD crystallinity (dry, %): 68.1%
  XRPD crystallinity (wet, %): 52.4%
[2]; thermocycling in iPAC 100.0%
  XRPD crystallinity (dry, %): 82.7%
  XRPD crystallinity (wet, %): 80.7%
[2]; thermocycling in tBME 100.0%
  XRPD crystallinity (dry, %): 81.0%
  XRPD crystallinity (wet, %): 79.0%
[3]; [8]
  Form XRPD (oven dried): Pattern 1
  Observations (t = 0 @ T = 20° C.): suspension
  Observations (t = 3 d @ 20° C.): suspension
[3]; [9]
  Form XRPD (oven dried): Pattern 1
  Observations (t = 0 @ T = 20° C.): suspension
  Observations (t = 3 d @ 20° C.): suspension
[3]; [10]
  Form XRPD (oven dried): Pattern 1
  Observations (t = 0 @ T = 20° C.): suspension
  Observations (t = 3 d @ 20° C.): suspension
[3]; [11]
  Form XRPD (oven dried): Pattern 1
  Observations (t = 0 @ T = 20° C.): suspension
  Observations (t = 3 d @ 20° C.): suspension
[3]; Heptane (5 vol) + CPME 800 μl
  Form XRPD (oven dried): Pattern 1
  Observations (t = 0 @ T = 20° C.): gum
  Observations (t = 3 d @ 20° C.): gum
[3]; [12]
  Observations (t = 0 @ T = 20° C.): suspension
  Observations (t = 3 d @ 20° C.): suspension
[3]; [13]
  Form XRPD (oven dried): Pattern 1
  Observations (t = 0 @ T = 20° C.): gum
  Observations (t = 3 d @ 20° C.): gum
[3]; [14]
  Observations (t = 0 @ T = 20° C.): suspension
  Observations (t = 3 d @ 20° C.): suspension
[3]; [15]
  Form XRPD (oven dried): Pattern 1
  Observations (t = 0 @ T = 20° C.): suspension
  Observations (t = 3 d @ 20° C.): suspension
[3]; [16]
  Form XRPD (oven dried): Pattern 1
  Observations (t = 0 @ T = 20° C.): suspension
[3]; [17]
  Form XRPD (oven dried): Pattern 1
  Observations (t = 0 @ T = 20° C.): suspension
  Observations (t = 3 d @ 20° C.): suspension
[3]; Heptane (5 vol) + MIBK 420 μl
  Form XRPD (oven dried): Pattern 1
  Observations (t = 0 @ T = 20° C.): suspension
  Observations (t = 3 d @ 20° C.): suspension
[3]; [18]
  Form XRPD (oven dried): Pattern 1
  Observations (t = 3 d @ 20° C.): suspension
[3]; [19]
  Form XRPD (oven dried): Pattern 1
  Observations (t = 0 @ T = 20° C.): suspension
  Observations (t = 3 d @ 20° C.): suspension
[3]; Water (5 vol) + Ethanol 80 μl
  Observations (t = 0 @ T = 20° C.): solution
[3]; [20]
  Form XRPD (oven dried): Pattern 1
  Observations (t = 0 @ T = 20° C.): gum
  Observations (t = 3 d @ 20° C.): gum
